How the values were obtained:
[1] = tested on: interaction between hLBP and E. coli LPS; test: ELISA: binding of biotinylated-LPS to surface-captured human LBP in the presence of peptides; conditions: LPS and peptide incubated 2 h at room temperature; fixed quantities of peptide
From the text: This example describes the capacity of preferred peptides of the invention to block the interaction between LBP and E. coli LPS. An ELISA was used to determine the binding of biotinylated-LPS to surface-captured human LBP, in the presence or absence of fixed quantities of the selected peptides. LPS was biotinylated according to standard procedures. Human LBP (hLBP) was captured by using a specific monoclonal antibody, purified by affinity chromatography. Mixtures of LPS and each peptide were incubated during 2 h at room temperature, and then 100 μL were added to hLBP-containing wells. The binding of biotinylated-LPS to hLBP was detected with horseradish peroxidase-conjugated streptavidin. The assay was developed by adding a chromogenic substrate. […] Each experiment recorded the interaction of hLBP and biotinylated-LPS in absence of peptides, in presence of LBP86-99, and in the example presented in FIG. 2 the effect of a non-related cationic peptide (C5,3).
Human LBP was captured to the plates using a specific monoclonal antibody. Binding of biotinylated-LPS was detected with an streptavidin-horseradish peroxidase conjugate. The extent to which the peptide LBP86-99 (LBP) inhibits this interaction is also shown.
The experimental conditions were similar to those described in FIG. 1. The effect of a non-related cationic peptide, C5,3 is also included.

[2] = tested on: LPS-induced human peripheral blood mononuclear cells (PBMC); test: Release of TNF by LPS-induced human PBMC; type: cell-based; conditions: E. coli 0111:B4 LPS incubated with peptide 2 h at 37° C.; human LBP 200 ng/mL; TNFα in supernatants after 18 h; average of three experiments
Method: In order to determine if the peptides of the present invention were able to neutralize LPS-mediated responses, their ability to reduce the release of TNF by LPS-activated human peripheral blood cells was estimated. This assay evaluates the release of TNF by LPS-induced human peripheral blood mononuclear cells (PBMC), using concentrations of LPS commonly found in septic patients. LPS was incubated with fixed concentrations of each peptide during 2 h at 37° C. and the mixtures were then added to PBMC. The culture medium was supplemented with human LBP (200 ng/mL) and plates were incubated at 37° C. in a 5% CO2 atmosphere. TNFα was measured in culture supernatants after 18 h using a human TNF-α specific ELISA. FIG. 4 represents the average results from three different experiments. […] LBPA95 and LBPA96. […] Similar results were observed when other concentrations of LPS (2 or 10 ng/mL) and hLBP (20 or 100 ng/mL) were used.
The effects on this assay of LBP86-99 (LBP), LBPA91, B6,1 and polymyxin B (PMB) are also shown.

[3] = tested on: E. coli LPS lethal challenge in BALB/c mice; test: Endotoxin shock model in Actinomycin D-sensitized mice, survival; type: in vivo; conditions: Actinomycin D 7.5 μg i.p., E. coli LPS 1 μg/mouse mixed with peptide (1 h, 37° C.), equimolar doses, survival over 120 h, p<0.05 vs. vehicle or B6,1
Method: An endotoxin shock animal model was used to determine if the peptides of this invention were able to block complex physiological responses triggered by LPS. In this model mice were sensitized with Actinomycin D to increase LPS-mediated toxic responses. With this purpose, Actinomycin D (7.5 μg) was administered i.p. to 6 to 8 weeks-old female mice. Simultaneously each mice received LPS, and survival was evaluated every 24 h during 120 h.
The effect of peptides of the present invention on mice survival was assessed by administering E. coli LPS (1 μg/mouse in saline vehicle) or LPS:peptide mixtures mixtures (previously incubated during 1 h at 37° C.) to BALB/c sensitized mice. FIG. 6 represents the results of a representative experiment where the following peptides were each administered at equimolar doses to groups of 20 mice: LBP86-99, LBPA94, LBPAs95, LBPA98 or B6, 1 (cationic, non-related peptide). […] The aforementioned in vivo neutralizing property of the peptides of the invention is relevant for their application in prophylactic or therapeutic methods for sepsis and other associated disorders.
Survival in groups of BALB/c mice treated with LBP86-99 (LBP) and B6,1 is also shown. Mice survival was recorded each 24 h during 120 h.

[4] = tested on: LPS-stimulated human PBMC; test: LPS-induced IL-6 production in cultures of human PBMC; type: cell-based; conditions: at every hLBP concentrations tested
Method: In order to determine if the peptides of the present invention were able to neutralize LPS-mediated responses, their ability to reduce the release of TNF by LPS-activated human peripheral blood cells was estimated. This assay evaluates the release of TNF by LPS-induced human peripheral blood mononuclear cells (PBMC), using concentrations of LPS commonly found in septic patients. LPS was incubated with fixed concentrations of each peptide during 2 h at 37° C. and the mixtures were then added to PBMC. The culture medium was supplemented with human LBP (200 ng/mL) and plates were incubated at 37° C. in a 5% CO2 atmosphere. TNFα was measured in culture supernatants after 18 h using a human TNF-α specific ELISA. […]
This invention provides peptides with advantageous functions over other LBP-derived peptides that have the native sequence or different a.a. replacements to those herein described at positions +1, +5, +6, +7, +9, +10, +11, +12 and +13. […] IL-6 was measured in culture supernatants after 18 h using a human IL-6 specific ELISA. In the represented experiment, the following peptides were evaluated; LPB86-99, LBP-H (LBP86-101, SEQ ID NO. 56)^13, LBPA94, LBPA95, and LBPA98. […]
Results are expressed as % inhibition of IL-6 release compared with the cytokine production in the absence of peptides The effects on this assay of LBP86-99, (LBP), LBP-H and B6,1 are also shown.

Substance: LBPA91: peptide which has tryptophan residue at position (6) replaced with alanine, SEQ ID No.55 (RVQGRAKVRKSFFK)
- interaction between hLBP and E. coli LPS (binding of biotinylated-LPS to captured hLBP) [1]: not affected
- LPS-stimulated TNF release by human PBMC [2]: did not inhibit

Substance: LBPA90: LBP 86-99 peptide analogue, SEQ ID No.3 (RVQGAWKVRKSFFK)
- interaction between hLBP and E. coli LPS (binding of biotinylated-LPS to captured hLBP) [1]: notably impaired

Substance: LBPA96: LBP 86-99 peptide analogue, SEQ ID No.6 (RVQGRWKVRKAFFK)
- interaction between hLBP and E. coli LPS (binding of biotinylated-LPS to captured hLBP) [1]: notably impaired
- LPS-stimulated TNF release by human PBMC [2]: Reduced levels of cytokine release

Substance: LBPA86: LBP 86-99 peptide analogue, SEQ ID No.2 (AVQGRWKVRKSFFK)
- interaction between hLBP and E. coli LPS (binding of biotinylated-LPS to captured hLBP) [1]: notably impaired

Substance: LBPA98: LBP 86-99 peptide analogue, SEQ ID No.7, essential a.a. at position +13 (RVQGRWKVRKSFAK)
- interaction between hLBP and E. coli LPS (binding of biotinylated-LPS to captured hLBP) [1]: notably impaired
- mice survival [3]: significantly increased

Substance: LBPA94: LBP 86-99 peptide analogue, SEQ ID No.4, essential a.a. at position +9 (RVQGRWKVAKSFFK)
- interaction between hLBP and E. coli LPS (binding of biotinylated-LPS to captured hLBP) [1]: notably impaired
- LPS-stimulated TNF release by human PBMC [2]: Reduced levels of cytokine release
- mice survival [3]: significantly increased

Substance: LBP86-99: peptide with the native sequence of the 86-99 a.a. region of human LBP mature protein (RVQGRWKVRKSFFK) [reference compound]
- LPS-stimulated TNF release by human PBMC [2]: Reduced levels of cytokine release
- mice survival [3]: only marginally

Substance: LBPA97: peptide with a residue at +6, +7 or +12 distinct from those of the invention, SEQ ID No.54 (RVQGRWKVRKSAFK)
- interaction between hLBP and E. coli LPS (binding of biotinylated-LPS to captured hLBP) [1]: not affected

Substance: LBPA95: LBP 86-99 peptide analogue, SEQ ID No.5, essential a.a. at position +10 (RVQGRWKVRASFFK)
- interaction between hLBP and E. coli LPS (binding of biotinylated-LPS to captured hLBP) [1]: notably impaired
- LPS-stimulated TNF release by human PBMC [2]: Reduced levels of cytokine release
- reduction of the LPS-triggered response (IL-6) [4]: more than 70%
- mice survival [3]: significantly increased

Substance: LBPA92: peptide with a residue at +6, +7 or +12 distinct from those of the invention, SEQ ID No.53 (RVQGRWAVRKSFFK)
- interaction between hLBP and E. coli LPS (binding of biotinylated-LPS to captured hLBP) [1]: not affected
